Values quoted from earlier work, collected in patent publication US12252709B2, “Culture media for culturing pluripotent stem cells in suspension” (Accellta Ltd., priority 2016, dated 2025).
Like-named read-outs stand apart in the source and are kept apart here.

Experiments:
[1] = tested on: hESCs; conditions: for background differentiation: MATRIGEL matrix
[2] = tested on: hESCs; conditions: Matrigel matrix, seven days (Sato et al, 2004)

Question: For “bFGF: basic fibroblast growth factor, medium supplement”, which background differentiation ([1]; serum replacement, 40 ng/ml bFGF [Xu et al, 2005b]) is on record?
Answer: 28%

Question: Which “maintenance of hESC properties” value [2] does the source give for O=C1Nc2cc(Br)ccc2/C1=C1/Nc2ccccc2/C1=N\O [BIO, 6-bromoindirubin-3′-oxime] here?
Answer: maintained hESC properties

B1: Flt-3 ligand: protein factor added to bFGF medium (protein, UniProt P49771 27-235, looked up)
Fms-related tyrosine kinase 3 …: TQDCSFQHSPISSDFAVKIRELSDYLLQDYPVTVASNLQDEELCGGLWRLVLAQRWMERLKTVAGSKMQGLLERVNTEIHFVTKCAFQPPPSCLRFVQTNISRLLQETSEQLVALKPWITRQNFSRCLELQCQPDSSTLPPPWSPRPLEATAPTAPQPPLLLLLLLPVGLLLLAAAWCLHWQRTRRRTPRPGEQVPPVPSPQDLLLVEH
Question: Which differentiation ([1]; as before with 75 ng/ml of Flt-3 ligand added) does the source give for B1 here?
Answer: 20%

B2: Noggin: protein factor used with 40 ng/ml bFGF (protein, UniProt Q13253 28-232, looked up)
Noggin: QHYLHIRPAPSDNLPLVDLIEHPDPIFDPKEKDLNETLLRSLLGGHYDPGFMATSPPEDRPGGGGGAAGGAEDLAELDQLLRQRPSGAMPSEIKGLEFSEGLAQGKKQRLSKKLRRKLQMWLWSQTFCPVLYAWNDLGSRFWPRYVKVGSCFSKRSCSVPEGMVCKPSKSVHLTVLRWRCQRRGGQRCGWIPIQYPIISECKCSC
Question: Which background differentiation ([1]; 40 ng/ml bFGF and 0.5 μg/ml Noggin [Xu et al, 2005]) does the source give for B2 here?
Answer: 10%
